This note sets out measurements from patent publication US20250177408A1, “INHIBITOR OF INTERACTION BETWEEN YAP/TAZ AND TEAD, PREPARATION THEREOF, PHARMACEUTICAL COMPOSITION THEREOF AND USE THEREOF” (ETERN BIOPHARMA (SHANGHAI) CO., LTD., priority 2022, published 2025).

Bounds are passed on as bounds.

The term IC50 denotes the concentration that inhibits the measured activity by half.

Chain of YAP-TEAD protein interaction (His-TEAD1 (209-426) protein, Bio-YAP peptide (60-100)) (P28347 209-426): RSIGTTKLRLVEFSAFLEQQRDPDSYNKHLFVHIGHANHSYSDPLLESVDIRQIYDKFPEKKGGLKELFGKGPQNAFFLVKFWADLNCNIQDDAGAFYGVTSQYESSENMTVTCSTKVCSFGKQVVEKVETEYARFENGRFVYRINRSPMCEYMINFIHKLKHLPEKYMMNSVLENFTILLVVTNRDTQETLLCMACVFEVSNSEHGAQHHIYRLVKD

In this assay the target is YAP-TEAD protein interaction (His-TEAD1 (209-426) protein, Bio-YAP peptide (60-100)) (Homo sapiens, UniProt P28347). As to the kind of experiment: YAP-TEAD protein interaction HTRF experiment. The assay is classed as binding. Conditions: His-TEAD1 (209-426) 10 nM, Bio-YAP peptide 50 nM, read-out: Activity of each compound in blocking YAP-TEAD protein interaction (grades of IC50 values). The procedure:
In this example, the YAP-TEAD protein interaction HTRF experiment was used to detect the activity of each compound in blocking the YAP-TEAD protein interaction.
The experiment was carried out according to the following operation steps:
Step 1: His-TEAD1 (209-426) protein was added to a 384-well detection white plate to a final concentration of 10 nM, and buffer was used as the background signal well. The compounds to be tested were subjected to 3-fold dilution and a total of 10 concentration gradients were set up, and each diluted solution was mixed well. A certain volume of the compound to be tested was added to each well separately, 2 replicates were set for each concentration, and the final concentration of DMSO was controlled at 1%. Incubation was carried out at room temperature for 20 minutes. The amino acid sequence of TAED1 (209-426) used in this step is shown in SEQ ID NO: 1:
After mixing evenly, the mixture was incubated at room temperature for 10 minutes.
Step 3: Anti-His-Eu cryptate gold and streptavidin-XL665 were diluted according to the instructions and mixed in equal proportions. A certain volume of the detection reagent was added to the well, and the mixture was incubated at room temperature for 1 hour.
Step 4: The signal was detected using an Envision (Perkin Elmer) microplate reader at an excitation wavelength of 320 nm and emission wavelengths of 665 nm and 620 nm.
Step 5: The signal was calculated based on the ratio of Em665/Em620*10000.
The inhibition percentage (%) was calculated using the following formula: […]
The half-maximal inhibitory concentration (IC50) values were calculated using GraphPad Prism software.
Regarding `N#CCC1Cc2cc(C(N)=O)c(-c3c(Cl)c(F)cc4c3C[C@](c3ccccc3)([C@@H]3CCCN3)O4)c(F)c2O1` (stereo partly drawn) [Compound I-55, (2S)-5-Chloro-2′-(cyanomethyl)-6,7′-difluoro-2-phenyl-2-((S)-pyrrolidin-2-yl)-2,2′,3,3′-tetrahydro-[4,6′-bibenzofuran]-5′-carboxamide], the IC50 is less than 50 nM.
The result for `NC(=O)c1cc2c(c(F)c1-c1c(Cl)c(F)cc3c1C[C@](c1ccccc1)([C@@H]1CCCN1)O3)OCCO2` [Compound 1′, 7-((2S,4R)-5-Chloro-6-fluoro-2-phenyl-2-((S)-pyrrolidin-2-yl)-2,3-dihydrobenzofuran-4-yl)-8-fluoro-2,3-dihydrobenzo[b][1,4]dioxine-6-carboxamide] reads 50 to 500 nM; that for `NC(=O)c1cc2c(c(F)c1-c1c(Cl)c(F)cc3c1C[C@](c1ccccc1)([C@@H]1CCCN1)O3)Oc1ncnc(N)c1O2` (atropisomer, axis not shown) [Compound 113, (S)-4-Amino-8-((S)-5-chloro-6-fluoro-2-phenyl-2-((S)-pyrrolidin-2-yl)-2,3-dihydrobenzofuran-4-yl)-9-fluorobenzo[5,6][1,4]dioxo [2,3-d]pyrimidine-7-carboxamide], 50 to 500 nM; that for `NC(=O)c1cc2c(c(F)c1-c1c(Cl)c(F)cc3c1C[C@](c1ccccc1)([C@@H]1CCCN1)O3)OCC2` (atropisomer, axis not shown) [Compound I-31, (2S,4S)-5-Chloro-6,7′-difluoro-2-phenyl-2-((S)-pyrrolidin-2-yl)-2,2′,3,3′-tetrahydrofuran-[4,6′-bibenzofuran]-5′-carboxamide], less than 50 nM.
Take `CNC(=O)c1cc2c(c(F)c1-c1c(Cl)c(F)cc3c1C[C@](c1ccccc1)([C@@H]1CCCN1)O3)OCCN2` (atropisomer, axis not shown) [Compound I-26, (S)-7-((2S)-5-Chloro-6-fluoro-2-phenyl-2-((S)-pyrrolidin-2-yl)-2,3-dihydrobenzofuran-4-yl)-8-fluoro-N-methyl-3,4-dihydro-2H-benzo[b][1,4]oxazine-6-carboxamide]: the IC50 is less than 50 nM.
As for `CNC(=O)c1cc2c(c(F)c1-c1c(Cl)c(F)cc3c1C[C@](c1ccccc1)([C@@H]1CCCN1)O3)[C@@H](O)CC2` (atropisomer, axis not shown) [Compound I-59, (1S,6S)-6-((S)-5-Chloro-6-fluoro-2-phenyl-2-((S)-pyrrolidin-2-yl)-2,3-dihydrobenzofuran-4-yl)-7-fluoro-1-hydroxy-N-methyl-2,3-dihydro-1H-indene-5-carboxamide], the 50% inhibitory concentration (IC50) was less than 50 nM.
For `NC(=O)c1cc2c(c(F)c1-c1c(Cl)c(F)cc3c1C[C@](c1ccccc1)([C@@H]1CCCN1)O3)OCCOC2` (atropisomer, axis not shown) [Compound I-54, (S)-8-((S)-5-Chloro-6-fluoro-2-phenyl-2-((S)-pyrrolidin-2-yl)-2,3-dihydrobenzofuran-4-yl)-9-fluoro-2,3-trihydro-5H-benzo[e][1,4]dioxa-7-carboxamide], the IC50 was less than 50 nM.
The result for `NC(=O)c1cc2c(c(F)c1-c1c(Cl)c(F)cc3c1C[C@](c1ccccc1)([C@@H]1CCCN1)O3)Oc1c(cnn(C3COC3)c1=O)O2` (atropisomer, axis not shown) [Compound 145, (S)-8-((S)-5-Chloro-6-fluoro-2-phenyl-2-((S)-pyrrolidin-2-yl)-2,3-dihydrobenzofuran-4-)-9-fluoro-2-(oxetan-3-yl)-1-oxo-1,2-dihydrobenzo[5,6][1,4]dioxo [2,3-d]pyridazine-7-carboxamide] reads less than 50 nM; that for `NC(=O)c1cn2ccnc2c(F)c1-c1c(Cl)c(F)cc2c1C[C@](c1ccccc1)([C@@H]1CCCN1)O2` (atropisomer, axis not shown) [Compound I-11, (S)-7-((S)-5-Chloro-6-fluoro-2-phenyl-2-((S)-pyrrolidin-2-yl)-2,3-dihydrobenzofuran-4-yl)-8-fluoroimidazo[1,2-a]pyridine-6-carboxamide], less than 50 nM.
In the case of `CNC(=O)c1cc2c(c(F)c1-c1c(Cl)c(F)cc3c1C[C@](c1ccccc1)([C@@H]1CCCN1)O3)OC(CO)CO2` (stereo partly drawn) [Compound I-56, (S)-7-((S)-5-Chloro-6-fluoro-2-phenyl-2-((S)-pyrrolidin-2-yl)-2,3-dihydrobenzofuran-4-yl)-8-fluoro-2-(hydroxymethyl)-N-methyl-2,3-dihydrobenzo[b][1,4] dioxoine-6-carboxamide], the IC50 was less than 50 nM.
In the case of `CNC(=O)c1cc2c(c(F)c1-c1c(Cl)c(F)cc3c1C[C@](c1ccccc1)([C@@H]1CCCN1)O3)[C@H](O)CC2` (atropisomer, axis not shown) [Compound I-60, (1R,6S)-6-((S)-5-Chloro-6-fluoro-2-phenyl-2-((S)-pyrrolidin-2-yl)-2,3-dihydrobenzofuran-4-yl)-7-fluoro-1-hydroxy-N-methyl-2,3-dihydro-1H-indene-5-carboxamide] it was 50 to 500 nM; in that of `NC(=O)c1cc2c(c(F)c1-c1c(Cl)c(F)cc3c1C[C@](c1ccccc1)([C@@H]1CCCN1)O3)[C@@H](O)CC2` (atropisomer, axis not shown) [Compound I-57, (1S,6S)-6-((S)-5-Chloro-6-fluoro-2-phenyl-2-((S)-pyrrolidin-2-yl)-2,3-dihydrobenzofuran-4-yl)-7-fluoro-1-hydroxy-2,3-dihydro-1H-indene-5-carboxamide], less than 50 nM.
Regarding `NC(=O)c1cc2c(c(F)c1-c1c(Cl)c(F)cc3c1C[C@](c1ccccc1)([C@@H]1CCCN1)O3)OC(CO)CO2` (stereo partly drawn) [Compound I-53, (S)-7-((S)-5-Chloro-6-fluoro-2-phenyl-2-((S)-pyrrolidin-2-yl)-2,3-dihydrobenzofuran-4-yl)-8-fluoro-2-(hydroxymethyl)-2,4-dihydrobenzo[b][1,4] dioxoine-6-carboxamide], the half-inhibitory concentration (IC50) was less than 50 nM.
The result for `[2H]c1c([2H])c([2H])c([C@]2([C@@H]3CCCN3)Cc3c(cc(F)c(Cl)c3-c3c(C(N)=O)cc4c(c3F)OCc3nn(C)cc3-4)O2)c([2H])c1[2H]` (atropisomer, axis not shown) [Compound 117, (S)-7-((S)-5-Chloro-6-fluoro-2-(phenyl-d5)-2-((S)-pyrrolidin-2-yl)-2,3-dihydrobenzofuran-4-yl)-6-fluoro-2-methyl-2,4-dihydrochromeno[3,4-c]pyrazole-8-carboxamide] reads more than 5000 nM.
The result for `Cn1cc2c(n1)COc1c-2cc(C(N)=O)c(-c2c(Cl)c(F)cc3c2C[C@](c2ccccc2)([C@@H]2CC(O)CN2)O3)c1F` (stereo partly drawn) [Compound 55, (7S)-7-((2S)-5-Chloro-6-fluoro-2-((2S)-4-hydroxypyrrolidin-2-yl)-2-phenyl-2,3-dihydrobenzofuran-4-yl)-6-fluoro-2-methyl-2,4-dihydrochromeno[3,4-c]pyrazole-8-carboxamide] reads 500 to 5000 nM; that for `NC(=O)c1cc2c(c(F)c1-c1c(Cl)c(F)cc3c1C[C@](c1ccccc1)([C@@H]1CCCN1)O3)[C@H](O)CC2` (atropisomer, axis not shown) [Compound I-58, (1R,6S)-6-((S)-5-Chloro-6-fluoro-2-phenyl-2-((S)-pyrrolidin-2-yl)-2,3-dihydrobenzofuran-4-yl)-7-fluoro-1-hydroxy-2,3-dihydro-1H-indene-5-carboxamide], 50 to 500 nM.
Regarding `CNC[C@@]1(c2ccccc2)Cc2c(cc(F)c(Cl)c2-c2c(C(N)=O)cc3c(ccn3C)c2F)O1` (atropisomer, axis not shown) [Compound I-2, (S)-5-((S)-5-Chloro-6-fluoro-2-((methylamino)methyl)-2-phenyl-2,3-dihydrobenzofuran-4-yl)-4-fluoro-1-methyl-1H-indole-6-carboxamide], the IC50 is less than 50 nM.
In the case of `NC(=O)c1cc2c(c(F)c1-c1c(Cl)c(F)cc3c1C[C@](c1ccccc1)([C@@H]1CCCN1)O3)OC(CO)C2` (stereo partly drawn) [Compound I-52, (2S,6′S)-5-Chloro-6,7′-difluoro-2′-(hydroxymethyl)-2-phenyl-2-((S)-pyrrolidin-2-yl)-2,2′,3,3′-tetrahydro-[4,6′-bibenzofuran]-5′-carboxamide], the IC50 is less than 50 nM.
The result for `Cn1cc2c(n1)COc1c-2cc(C(N)=O)c(-c2c(Cl)c(F)cc3c2C[C@](c2ccccc2)([C@@H]2CCCN2)O3)c1F` (atropisomer, axis not shown) [Compound 3′, (R)-7-((S)-5-Chloro-6-fluoro-2-phenyl-2-((S)-pyrrolidin-2-yl)-2,3-dihydrobenzofuran-4-yl)-6-fluoro-2-methyl-2,4-dihydrochromeno[3,4-c]pyrazole-8-carboxamide] reads 50 to 500 nM.
On to `Cc1nnc2n1-c1cc(C(N)=O)c(-c3c(Cl)c(F)cc4c3C[C@](c3ccccc3)([C@@H]3CCCN3)O4)c(F)c1OC2` (atropisomer, axis not shown) [Compound 43, (S)-7-((S)-5-Chloro-6-fluoro-2-phenyl-2-((S)-pyrrolidin-2-yl)-2,3-dihydrobenzofuran-4-yl)-6-fluoro-1-methyl-4H-benzo[b][1,2,4]triazolo[4,3-d][1,4]oxazine-8-carboxamide], for which the half-inhibitory concentration (IC50) fell in the range of 50 to 500 nM.
